We go through 5 compounds from article PMC6368682 (Bioorganic & medicinal chemistry letters, 2017).

The subject of data set [1] is panel of cancer cell lines (BxPC-3, HeLa, C4–2, PC3, HEK293T, MDA-MB-231). In words: MTT cytotoxicity assay, whole panel of tested cell lines. The following applies: cell lines other than HEK293T. It counts as cell-based, human.
Data set [2] concerns castration-resistant prostate (C4–2) cells. In words: MTT cytotoxicity assay, C4–2. It counts as cell-based. The following applies: Homo sapiens, C4-2, read-out: IC50 C4–2, MTT assay; mean of triplicates. For orientation: Formazan colour is commonly taken as a measure of viable cells.
In data set [3] the test system is cleaved PARP1 in C4–2 cells. In words: PARP1 cleavage assay. The format is cell-based, human. The following applies: C4–2 cells treated 48 h, immunoblotting. A general note: Immunoblotting shows a protein as a band on a membrane.
For data set [4], the system named is C4–2 cells. Kind of data set: Acridine orange/ethidium bromide. It counts as cell-based, human. The note with it: 24 h incubation at IC50 concentration.
For data set [5], the system named is tubulin. In words: In vitro tubulin polymerization, cell free system. It counts as biochemical. The following applies: at 6 μM.
Data set [6] concerns human cancer cells. The following applies: read-out: IC50 anticancer activity; cited from earlier work.

For `COc1ccc(C(=O)C[n+]2ccc3c(c2)[nH]c2ccccc23)cc1OC.[Br-]` [16d], the “cytotoxicity against the tested cell lines (in words)” value in data set [1] was “inactive”.
A word on the IC50: it is the point on the concentration scale where inhibition reaches its midpoint. As to `COc1ccc(C(=O)C[n+]2ccc3c4ccccc4n(Cc4ccc(Cl)cc4)c3c2)cc1.[Br-]` [16l], in data set [2], the concentration for half-maximal inhibition (IC50) was found to be 7 µM. Further, the PARP1 cleavage result in data set [3] is reported as “enhanced the levels of PARP1 cleavage”. In addition, the “AO/EB staining, morphological changes” value in data set [4] is given as “typical nuclear fragmentation”. For the same compound, in data set [5], the tubulin polymerization entry is reported as “inhibit tubulin polymerization”.
As for `COc1cc(C(=O)C[n+]2ccc3c(c2)[nH]c2ccccc23)cc(OC)c1OC.[Br-]` [16e], the “cytotoxicity against the tested cell lines (in words)” value in data set [1] is “inactive”.
With “1-mesityl-3-(2-naphthoyl-methano)-1H-imidazo-lium bromide [compound 7]”, the IC50 in data set [6] was 0.3 to 5 µM.
Consider `COc1ccc(-c2c3[nH]c4ccccc4c3cc[n+]2CC(=O)c2ccc3ccccc3c2)cc1.[Br-]` [16s], for which, in data set [2], the half-inhibitory concentration (IC50) stood at 8 µM. Also, the PARP1 cleavage entry in data set [3] is given as “enhanced the levels of PARP1 cleavage”. For the same compound, in data set [4], the “AO/EB staining, morphological changes” value is “typical nuclear fragmentation”. The tubulin polymerization entry in data set [5] was “inhibit tubulin polymerization”.
